Measurements reported in ChEMBL document CHEMBL1122678, “Structural correlations of choline acetyltransferase inhibitors: trans-N-(carboxymethyl)-4-(beta-1-naphthylvinyl)pyridinium bromide and cis-N-(2-aminoethyl)-4-(beta-1-naphthylvinyl)-3-methylpyridinium bromide hydrobromide” (J Med Chem, 1984).

Key:
[1] = (§1) Inhibitory activity was determined; conditions: read-out: I50
[2] = as §1

SMILES | IC50 [1] [µM] | I23 [2] [µM]
C(=C\c1cccc2ccccc12)/c1ccncc1 | 25 | 
C(=C\c1cccc2ccccc12)/c1ccncc1 (stereo in doubt; cis) [listing 1 of 2 here] | 50 | 
C(=C\c1cccc2ccccc12)/c1ccncc1 (stereo in doubt; cis) [listing 2 of 2 here] |  | 400
C(=C\c1cccc2ccccc12)/c1ccncc1 (stereo in doubt; trans) | 5 | 
